Key:
T7 RNA polymerase [1] = biological target: T1, T7 RNA polymerase (Escherichia phage T7, UniProt P00573); type: biochemical, T7 bacteriophage; conditions: Primer/NTP Formulation 1: 6 mM primer, 1.5 mM GTP, 7.5 mM each ATP, CTP, UTP; capped peaks/(capped + 5′ OH peak)
T1 construct: purchased New England Biolabs M0251
Protocol: A double stranded DNA transcription template encoding firefly luciferase was generated by polymerase chain reaction. The +1 template nucleotide was 2′-deoxycytidine. Transcription reactions were assembled with 25 ug/mL transcription template, 40 mM Tris-HCl (pH 8.0), 27 mM MgCl2, 2 mM spermidine, 10 mM DTT, 0.002% Triton X-100, 1000 unit/mL murine RNase inhibitor (New England Biolabs catalog #M0314), 2 unit/mL inorganic pyrophosphatase (New England Biolabs catalog #M2403), 4000 units/mL T7 RNA polymerase (New England Biolabs catalog #M0251), 6 mM ARCA (^m7G3′OmepppGG), 1.5 mM GTP, 7.5 mM ATP, 7.5 mM CTP and 7.5 mM UTP. Transcriptions were incubated at 37° C. for 2 hours. Reactions were supplemented with 10 mM Tris-HCl (pH 7.6), 2.5 mM MgCl2, 0.5 mM CaCl2 and 100 units/mL DNase I (New England Biolabs catalog #M0303) and incubated for 1 hour at 37° C. The resulting mRNAs were purified using an RNeasy Maxi kit (Qiagen catalog #75162) according to manufacturer's instructions. mRNAs were eluted in water and dephosphorylated by adjusting the solution to 50 mM Bis-Tris-Propane HCl (pH 6.0), 1 mM MgCl2, 0.1 mM ZnCl2 and 250 units/mg Antarctic phosphatase (New England Biolabs catalog #M0289). The reaction were incubated at 37° C. for 1 hour. The resulting mRNAs were purified using an RNeasy Maxi kit (Qiagen catalog #75162) according to manufacturer's instructions. mRNAs were eluted in water.
A double stranded firefly luciferase DNA transcription template specific for each trimer is generated by polymerase chain reaction. These templates differed in template nucleotides +1 and +2. For a given trimer, template nucleotide +1 was complementary to B1 (the nucleotide destined to become transcript nucleotide +1). Likewise template nucleotide +2 was complementary to […] (the nucleotide destined to become transcript nucleotide +2; see Example 10)). Transcription reactions are assembled with 25 ug/mL transcription template, 40 mM Tris-HCl (pH 8.0), 27 mM MgCl2, 2 mM spermidine, 10 mM DTT, 0.002% Triton X-100, 1000 unit/mL murine RNase inhibitor (New England Biolabs catalog #M0314), 2 unit/mL inorganic pyrophosphatase (New England Biolabs catalog #M2403), 4000 units/mL T7 RNA polymerase (New England Biolabs catalog #M0251) and 6 mM of initiating capped oligonucleotide primer, 1.5 mM GTP and 7.5 mM each of ATP, CTP and UTP. In subsequent examples, this primer/NTP formulation will be referred to as Primer/NTP Formulation 1. It is clear to one skilled in the art that other polymerases such as T7, T3 or SP6 RNA polymerases could be used instead of T7 RNA polymerase to perform the same function by using their respective promoters. Transcription reaction mixtures are incubated at 37° C. for 2 hours. Reactions are supplemented with 10 mM Tris-HCl (pH 7.6), 2.5 mM MgCl2, 0.5 mM CaCl2 and 100 units/mL DNase I (New England Biolabs catalog #M0303) and incubated for 1 hour at 37° C. The resulting mRNAs are purified using an RNeasy Maxi kit (Qiagen catalog #75162) according to manufacturer's instructions. mRNAs are eluted in water and dephosphorylated by adjusting the solution to 50 mM Bis-Tris-Propane HCl (pH 6.0), 1 mM MgCl2, 0.1 mM ZnCl2 and 250 units/mg Antarctic phosphatase (New England Biolabs catalog #M0289). The reaction is incubated at 37° C. for 1 hour. The resulting mRNAs are purified using an RNeasy Maxi kit (Qiagen catalog #75162) according to manufacturer's instructions. mRNAs are eluted in water.
Initiating capped oligonucleotide primer ^7mG3′OmepppA2′OmepG2′OmepG were used in transcription. Transcription were carried out as in Example 11 with the following modifications. A double stranded DNA transcription template specific for tetramer was generated by polymerase chain reaction. The template nucleotide +1 (2′-deoxythymidine) was complementary to Adenosine (the first nucleotide of the primer destined to become a transcript nucleotide +1).

THP-1 cells = assay: Translation of luciferase mRNAs in differentiated THP-1 cells; type: cell-based; conditions: 100 ng mRNA per well
Protocol: In order to assess the expression of luciferase mRNAs generated in Examples 14 and 15, mRNAs were transfected into THP-1 cells (ATCC, Catalog #TIB-202) with six replicates. THP-1 cells were cultured in ATCC formulated RPMI-1640 (ATCC, Catalog #30-2001) supplemented with 10% FBS, sodium pyruvate and penicillin/streptomycin at 37° C. under an atmosphere of 5% CO2. Cells were seeded at 2E+05 cells per well in a 24-well plate format in the presence of the phorbol ester 12-O-Tetradecanoylphorbol-13-acetate (TPA; Cell Signaling Technologies, Catalog #4174) to induce differentiation. Cells were transfected with 100 ng of mRNA per well 72 hours after seeding. For comparison, cells were also transfected with a Cap0 luciferase mRNA generated by initiation with ARCA. At 20 hours post-transfection, cells were harvested and luciferase activity was measured using a ONE-Glo Luciferase Assay System kit (Promega Catalog #E6120) according to the manufacturer's recommendations. Luminescence was measured using a GloMax-Multi+Detection System instrument according to the manufacturer's recommendations. Data were graphed as the mean of six replicates +/−the standard deviation from the mean. Data were analyzed using the Unpaired t-test to generate p values as a measure of significance. […] In FIG. 14B, we also assessed the activity of an mRNA that was made with the “TC” Template and capped with ARCA (Cap 0). […]

T7 RNA polymerase [2] = biological target: T1, T7 RNA polymerase; assay: Capping assay (LC-MS) of mRNA made with ^m7GpppA2′OmepG on "TC" vs "CC" transcription template; type: biochemical, T7 bacteriophage
Protocol: (§1) A double stranded firefly luciferase DNA transcription template was used with 2′-deoxythymidine and 2′-deoxycytidine residues at template positions +1 and +2, respectively. Two transcription reactions were assembled with 25 ug/mL transcription template, 40 mM Tris-HCl (pH 8.0), 27 mM MgCl2, 2 mM spermidine, 10 mM DTT, 0.002% Triton X-100, 1000 unit/mL murine RNase inhibitor (New England Biolabs catalog #M0314), 2 unit/mL inorganic pyrophosphatase (New England Biolabs catalog #M2403), 4000 units/mL T7 RNA polymerase (New England Biolabs catalog #M0251). The two transcriptions differed in the amount of initiating capped oligonucleotide, amount of NTPs and the identity of NTPs. The first transcription was designed to mimic the transcription conditions of Ishikawa et al. (Nucleic Acids Symposium Series No. 53:129 (2009)). This transcription reaction contained 6 mM of ^m7GpppA2′OmepG initiating capped oligonucleotide primer, 0.9 mM GTP and 7.5 mM of ATP, CTP and UTP. In subsequent examples this primer/NTP formulation will be referred to as Primer/NTP Formulation 2. In this formulation, the initiating oligonucleotide primer was in greater than 6 fold excess over GTP. The second transcription used 5 mM of ^m7GpppA2′OmepG initiating capped oligonucleotide primer, 5 mM GTP, ATP, CTP and pseudouridine triphosphate […]. In subsequent examples this primer/NTP formulation will be referred to as Primer/NTP Formulation 3. In Primer/NTP Formulation 3, the GTP concentration was increased in order to produce commercially useful amounts of RNA. It is clear to one skilled in the art that other polymerases such as T7, T3 or SP6 RNA polymerases could be used instead of T7 RNA polymerase to perform the same function by using their respective promoters. Transcription reaction mixtures are incubated at 37° C. for 2 hours. Reactions were supplemented with 10 mM Tris-HCl (pH 7.6), 2.5 mM MgCl2, 0.5 mM CaCl2 and 100 units/mL DNase I (New England Biolabs catalog #M0303) and incubated for 1 hour at 37° C. The resulting mRNAs were purified using an RNeasy Maxi kit (Qiagen catalog #75162) according to manufacturer's instructions. mRNAs were eluted in water and dephosphorylated by adjusting the solution to 50 mM Bis-Tris-Propane HCl (pH 6.0), 1 mM MgCl2, 0.1 mM ZnCl2 and 250 units/mg Antarctic phosphatase (New England Biolabs catalog #M0289). The reaction was incubated at 37° C. for 1 hour for Primer/NTP Formulation 2 and 3 hours for Primer/NTP Formulation 3 hour. The resulting mRNAs were purified using an RNeasy Maxi kit (Qiagen catalog #75162) according to manufacturer's instructions. mRNAs were eluted in water. The purified transcription yields with Primer/NTP Formulation 2 and 3 were 0.7 milligram/milliliter transcription reaction (mg/mL) and 3.9 mg/mL transcription reaction, respectively.
A double stranded firefly luciferase DNA transcription template was used in which the +1 and +2 template nucleotides were cytidines and thus not completely complementary to the ^m7GpppA2′OmepG initiating capped oligonucleotide primer. Two transcription reactions were assembled with 25 ug/mL transcription template, 40 mM Tris-HCl (pH 8.0), 27 mM MgCl2, 2 mM spermidine, 10 mM DTT, 0.002% Triton X-100, 1000 unit/mL murine RNase inhibitor (New England Biolabs catalog #M0314), 2 unit/mL inorganic pyrophosphatase (New England Biolabs catalog #M2403), 4000 units/mL T7 RNA polymerase (New England Biolabs catalog #M0251). The two transcriptions differed in the amount of initiating capped oligonucleotide and NTPs. The first transcription was designed to mimic the transcription conditions of Ishikawa et al. (Nucleic Acids Symposium Series No. 53: 129 (2009)). This transcription reaction contained Primer/NTP Formulation 2. The second transcription used Primer/NTP Formulation 3. It is clear to one skilled in the art that other polymerases such as T7, T3 or SP6 RNA polymerases could be used instead of T7 RNA polymerase to perform the same function by using their respective promoters. […]

T7 RNA polymerase [3] = biological target: T1, T7 RNA polymerase; assay: In vitro transcription of firefly luciferase template, purified transcription yield; type: biochemical, T7 bacteriophage
Protocol: as §1, with “reaction, respectively. […]” for “reaction, respectively.”

[4] = excess of ^7mGpppG over pppG from 4:1 to 10:1; cited from earlier work
T7 RNAP = T7 RNAP (Escherichia phage T7, UniProt P00573); conditions: transcription initiation; read-out: Kd for the first initiating NTP; cited from earlier work
Sequence of T7 RNAP (P00573 whole entry): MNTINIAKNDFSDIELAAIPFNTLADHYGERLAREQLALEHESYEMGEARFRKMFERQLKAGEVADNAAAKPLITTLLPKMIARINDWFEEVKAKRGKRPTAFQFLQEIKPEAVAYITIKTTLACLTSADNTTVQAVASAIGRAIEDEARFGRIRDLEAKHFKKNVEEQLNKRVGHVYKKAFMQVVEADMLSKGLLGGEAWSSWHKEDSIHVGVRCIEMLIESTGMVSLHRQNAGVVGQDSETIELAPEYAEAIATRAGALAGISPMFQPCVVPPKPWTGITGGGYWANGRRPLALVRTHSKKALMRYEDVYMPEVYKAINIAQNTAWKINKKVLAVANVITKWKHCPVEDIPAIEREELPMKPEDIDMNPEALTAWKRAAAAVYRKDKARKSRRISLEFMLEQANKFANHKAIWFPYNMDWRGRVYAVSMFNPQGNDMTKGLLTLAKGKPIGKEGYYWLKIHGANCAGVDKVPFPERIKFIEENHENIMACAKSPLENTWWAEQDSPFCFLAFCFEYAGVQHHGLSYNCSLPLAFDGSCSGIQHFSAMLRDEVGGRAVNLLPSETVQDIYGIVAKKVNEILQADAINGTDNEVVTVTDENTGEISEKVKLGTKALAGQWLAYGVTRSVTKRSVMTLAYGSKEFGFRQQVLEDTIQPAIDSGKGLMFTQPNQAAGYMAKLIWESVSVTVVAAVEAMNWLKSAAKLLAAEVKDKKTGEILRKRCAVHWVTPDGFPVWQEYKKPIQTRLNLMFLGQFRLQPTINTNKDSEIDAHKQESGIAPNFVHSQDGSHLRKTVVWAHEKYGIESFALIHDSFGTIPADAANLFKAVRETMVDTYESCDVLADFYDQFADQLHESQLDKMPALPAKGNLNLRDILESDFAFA

T1 sequence (P00573 whole entry): as above

With ^m7GpppG2′OmepG the “observed % capping (capping efficiency)” value (T7 RNA polymerase [1]) was 89%.
With “^7mG(3′-O-Me)pppG [^m7G3′OmepppG, reference compound]” the “luciferase activity relative to transcripts made with ^m7GpppA2′OmepG on "TC" template” value (THP-1 cells; "TC" template, 20 hours post-transfection (FIG. 14B)) was “significantly less activity” and the “observed % capping (capping efficiency)” value (T7 RNA polymerase [1]) was 79%.
In the case of ^m7GpppA2′OmepG, the “translation (luciferase activity), "TC" template vs "CC" template” value (THP-1 cells; 20 hours post-transfection, Primer/NTP Formulations 2 and 3 (FIG. 14A, 14B)) is reported as “significantly superior”, the “fidelity of templated transcription initiation” value (T7 RNA polymerase [2]; template +1/+2 2′-deoxythymidine/2′-deoxycytidine, Formulations 2 and 3 (FIGS. 13A, 13B)) is reported as “Only minor aberrant initiation products were detected” and the capping efficiency (T7 RNA polymerase [2]; template +1/+2 2′-deoxythymidine/2′-deoxycytidine, Primer/NTP Formulation 2 (FIG. 13A)) is reported as 99%. The capping efficiency (T7 RNA polymerase [2]; template +1/+2 2′-deoxythymidine/2′-deoxycytidine, Primer/NTP Formulation 3 (FIG. 13B)) was 96%, the “fidelity of templated transcription initiation” value (T7 RNA polymerase [2]; template +1/+2 cytidine, Formulations 2 and 3 (FIGS. 13C, 13D)) was “initiated in two registers” and the “calculated capping efficiency (Cap 1+A and Cap 1 GtoA)” value (T7 RNA polymerase [2]; template +1/+2 cytidine, Primer/NTP Formulation 2 (FIG. 13C)) was 97%. For the same compound, the “calculated capping efficiency (Cap 1+A and Cap 1 GtoA)” value (T7 RNA polymerase [2]; template +1/+2 cytidine, Primer/NTP Formulation 3 (FIG. 13D)) was 77%, the “observed % capping (capping efficiency)” value (T7 RNA polymerase [1]) was 99% and the purified transcription yield (T7 RNA polymerase [3]; template +1/+2 2′-deoxythymidine/2′-deoxycytidine, Primer/NTP Formulation 2) was 0.7 mg/mL. It also gave a purified transcription yield (T7 RNA polymerase [3]; template +1/+2 2′-deoxythymidine/2′-deoxycytidine, Primer/NTP Formulation 3) of 3.9 mg/mL, a purified transcription yield (T7 RNA polymerase [3]; template +1/+2 cytidines, Primer/NTP Formulation 2) of 0.6 mg/mL and a purified transcription yield (T7 RNA polymerase [3]; template +1/+2 cytidines, Primer/NTP Formulation 3) of 3.9 mg/mL.
For ^m7G3′OmepppC2′OmepG, the “observed % capping (capping efficiency)” value (T7 RNA polymerase [1]) was 97%.
For ^7mG(5′)ppp(5′)G [^7mGpppG], the “5′-Cap structure mRNA transcripts” value [4] is listed as 80-90%.
For ^m7GpppA2′OmepG2′OmepG, the “observed % capping (capping efficiency)” value (T7 RNA polymerase [1]) was 50%.
In the case of ^m7G3′OmepppG2′OmepG, the “observed % capping (capping efficiency)” value (T7 RNA polymerase [1]) is reported as 87%.
In the case of `Nc1nc2c(ncn2[C@@H]2O[C@H](COP(=O)(O)OP(=O)(O)OP(=O)(O)O)[C@@H](O)[C@H]2O)c(=O)[nH]1` [GTP, guanosine triphosphate], the Kd (T7 RNAP) is given as 2000 µM.
For ^m7GpppC2′OmepG, the “observed % capping (capping efficiency)” value (T7 RNA polymerase [1]) was 98%.
For ^m7G3′OmepppA2′OmepG, the “observed % capping (capping efficiency)” value (T7 RNA polymerase [1]) was 99%.
